Assay [1] has as its target T1, G6sec1 (Homo sapiens, UniProt Q9BYG0).
T1 construct: made in house; host or cells: Sf21 insect cells infected with pVL1393-F2G6sec1-derived recombinant baculovirus
T1 sequence (Q9BYG0 36-378): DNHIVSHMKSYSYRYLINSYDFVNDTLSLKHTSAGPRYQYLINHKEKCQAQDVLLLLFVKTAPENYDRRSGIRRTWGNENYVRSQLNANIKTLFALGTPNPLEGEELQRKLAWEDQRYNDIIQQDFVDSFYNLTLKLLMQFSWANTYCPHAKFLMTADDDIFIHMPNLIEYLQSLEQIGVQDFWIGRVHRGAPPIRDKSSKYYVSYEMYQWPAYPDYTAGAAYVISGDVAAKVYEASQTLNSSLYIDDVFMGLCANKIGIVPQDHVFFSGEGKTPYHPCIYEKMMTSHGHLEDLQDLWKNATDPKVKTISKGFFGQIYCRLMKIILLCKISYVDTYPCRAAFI
Description: GlcNAc β1,3-galactosyltransferase activity measurement. Conditions: 2-aminobenzamide-labeled substrate 88 μmol/l; UDP-Gal; 37° C., 16 hours. It counts as biochemical. The method, then:
(§1) The β1,3-galactosyltransferase activity measurement was carried out according to a conventional method [J. Biol. Chem., 274, 12499-12507 (1999)]. The reaction was carried out at 37° C. for 16 hours in 20 μl of an assay solution [14 mmol/l HEPES (pH 7.4), 75 μmol/l UDP-Gal (manufactured by SIGMA), 11 mmol/l MnCl2, 88 μmol/l sugar chain substrate, the above purified enzyme]. The amount of the enzyme used was the same as the amount used in the measurement of β1,3-N-acetylglucosaminyltransferase. As a substrate, 2-aminobenzamide-labeled GlcNAcβ1-3Galβ1-4GlcNAcβ1-3Galβ1-4GlcNAc (hereinafter referred to as “GlcNAc-2LN”) was used. The sugar chain was prepared by treating 2-aminobenzamide-labeled LN3 with β-galactosidase and thereby removing the terminal galactose residue. Specifically, 100 milli-units of β-galactosidase (manufactured by Seikagaku Corporation) were added to about 60 nmol of 2-aminobenzamide-labeled LN3, the reaction was carried out at 37° C. for 16 hours, and the sugar chain was prepared by inactivating β-galactosidase through its heat treatment at 100° C. for 5 minutes.

Assay [2] concerns the target T2, G6sec2 (Homo sapiens, UniProt Q9BYG0).
T2 construct: made in house; host or cells: Sf21 insect cells infected with pVL1393-F2G6sec2-derived recombinant baculovirus
T2 sequence (Q9BYG0 39-378): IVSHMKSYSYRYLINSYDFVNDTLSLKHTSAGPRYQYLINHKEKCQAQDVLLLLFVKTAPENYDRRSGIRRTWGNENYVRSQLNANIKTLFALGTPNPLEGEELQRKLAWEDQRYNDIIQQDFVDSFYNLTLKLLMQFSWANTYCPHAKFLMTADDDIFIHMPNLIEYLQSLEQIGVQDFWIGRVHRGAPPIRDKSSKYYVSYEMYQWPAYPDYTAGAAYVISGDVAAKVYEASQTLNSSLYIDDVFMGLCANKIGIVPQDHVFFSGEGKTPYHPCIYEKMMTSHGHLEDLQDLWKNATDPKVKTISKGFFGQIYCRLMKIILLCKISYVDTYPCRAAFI
Described as above. The conditions noted are these: 2-aminobenzamide-labeled substrate 88 μmol/l; UDP-Gal; 37° C., 16 hours. It counts as biochemical. How it is done:
as §1

Consider “GlcNAcβ1-3Galβ1-4GlcNAcβ1-3Galβ1-4GlcNAc [GlcNAc-2LN]”, for which the “GlcNAc β1,3-galactosyltransferase activity” value in assay [1] and in assay [2] was “did not show” each time.

These data come from patent US7629150B2, “Transformed cell harboring DNA or RNA encoding sugar chain synthesizing agent having β1,3-N-acetylglucosaminyltransferase activity” (Kyowa Hakko Kirin Co., Ltd., priority 2000, dated 2009).
